Laboratory results: PMC8880564, “Design, Synthesis, and Biological Evaluation of a Novel VEGFR-2 Inhibitor Based on a 1,2,5-Oxadiazole-2-Oxide Scaffold with MAPK Signaling Pathway Inhibition” (Pharmaceuticals, 2022)

Key:
Assay in all cases: NCI-60 one-dose SRB screening
Assay type in all cases: cell-based
MCF7 = conditions: Homo sapiens, MCF7, Breast Cancer, 10 µM one dose, 48 h, read-out: growth percentage
Procedure: (§1) The structures of the synthesized compounds 6a–h, 12a–c, 11, 13a–c, and 14a–c were submitted to the National Cancer Institute’s Developmental Therapeutics Program (NCI-DTP), and all of them were selected for preliminary in vitro anticancer activity screening against NCI-59 human cancer cell lines at a concentration of 10 µM, using the sulforhodamine B (SRB) assay to determine the growth percentage and cell viability.
(§2) The in vitro NCI-60 cell line screening assay was conducted at the National Cancer Institute (NCI), Bethesda, USA against 59 cancer cell lines representing 9 types of cancers, as reported earlier. Briefly, the human cancer cell lines were grown in RPMI 1640 medium containing 5% fetal bovine serum and 2 mM L-glutamine and inoculated into 96-well microtiter plates in 100 μL (5000 to 40,000 cells/well). Then, the plates were incubated at 37 °C, 5% CO2, 95% air, and 100% relative humidity for 24 h. After that, two plates of each cell line were fixed in situ with TCA, to represent cell population at time zero (Tz). The tested compounds were dissolved in DMSO at 400-fold and added so that the final concentration became 10 μM. The plates were then incubated for an additional 48 h followed by the addition of cold TCA to terminate the assay in case of adherent cells. Then, the cells were fixed in situ by cold 50% (w/v) TCA (50 μL; final concentration, 10% TCA) and incubated for 1 h at 4 °C. After discarding the supernatant, the plates were washed 5 times with tap water and air dried. Sulforhodamine B (SRB) solution (100 μL) at 0.4% (w/v) in 1% HOAc was added to each well, and plates were incubated for 10 min. at rt. Then, washing with 1% acetic acid was conducted 5 times to remove the unbound dye followed by air drying. After that, 10 mM trizma base was added to solubilize the bound stain, and the absorbance was read on an automated plate reader at a wavelength of 515 nm. On the other hand, the methodology for suspension cells was the same except that 50 μL of 80% TCA (final concentration, 16% TCA) was gently added to terminate the assay by fixing settled cells at the bottom of the wells. Percentage growth inhibition (GI%) was calculated as follows:
(§3) Growth percentage=Ti (test growth in the presence of compound at 10 µM )−Tz (time zero)/C (control growth)−Tz (time zero)×100 for Ti ≥ Tz;
(§4) Growth percentage=Ti (test growth in the presence of compound at 10 µM )−Tz (time zero)/Tz (time zero)×100 for Ti < Tz.
(§5) where values of 100, 40, 0, −40, and −100 mean no GI, 60% GI, no net G, 40% lethality, and all cells are dead, respectively.

A498 = conditions: Homo sapiens, A498, Renal Cancer, 10 µM one dose, 48 h, read-out: growth percentage
Procedure: as §1, §2, §3, §4, §5

HCT-116 = conditions: Homo sapiens, HCT-116, Colon Cancer, 10 µM one dose, 48 h, read-out: growth percentage
Procedure: as §1, §2, §3, §4, §5

786-0 = conditions: Homo sapiens, 786-0, Renal Cancer, 10 µM one dose, 48 h, read-out: growth percentage
Procedure: as §1, §2, §3, §4, §5

NCI-H226 = conditions: Homo sapiens, NCI-H226, Non-Small Cell Lung Cancer, 10 µM one dose, 48 h, read-out: growth percentage
Procedure: as §1, §2, §3, §4, §5

TK-10 = conditions: Homo sapiens, TK-10, Renal Cancer, 10 µM one dose, 48 h, read-out: growth percentage
Procedure: as §1, §2, §3, §4, §5

IGROV1 = conditions: Homo sapiens, IGROV-1, IGROV1, Ovarian Cancer, 10 µM one dose, 48 h, read-out: growth percentage
Procedure: as §1, §2, §3, §4, §5

HS 578T = conditions: Homo sapiens, Breast Cancer, 10 µM one dose, 48 h, read-out: growth percentage
Procedure: as §1, §2, §3, §4, §5

OVCAR-5 = conditions: Homo sapiens, OVCAR-5, Ovarian Cancer, 10 µM one dose, 48 h, read-out: growth percentage
Procedure: as §1, §2, §3, §4, §5

MDA-MB-231/ATCC = conditions: Homo sapiens, Breast Cancer, 10 µM one dose, 48 h, read-out: growth percentage
Procedure: as §1, §2, §3, §4, §5

A549/ATCC = conditions: Homo sapiens, Non-Small Cell Lung Cancer, 10 µM one dose, 48 h, read-out: growth percentage
Procedure: as §1, §2, §3, §4, §5

SR = conditions: Homo sapiens, Leukemia, 10 µM one dose, 48 h, read-out: growth percentage
Procedure: as §1, §2, §3, §4, §5

UO-31 = conditions: Homo sapiens, UO-31, Renal Cancer, 10 µM one dose, 48 h, read-out: growth percentage
Procedure: as §1, §2, §3, §4, §5

NCI-H460 = conditions: Homo sapiens, NCI-H460, Non-Small Cell Lung Cancer, 10 µM one dose, 48 h, read-out: growth percentage
Procedure: as §1, §2, §3, §4, §5

OVCAR-8 = conditions: Homo sapiens, OVCAR-8, Ovarian Cancer, 10 µM one dose, 48 h, read-out: growth percentage
Procedure: as §1, §2, §3, §4, §5

HT29 = conditions: Homo sapiens, HT-29, HT29, Colon Cancer, 10 µM one dose, 48 h, read-out: growth percentage
Procedure: as §1, §2, §3, §4, §5

SF-539 = conditions: Homo sapiens, SF-539, CNS Cancer, 10 µM one dose, 48 h, read-out: growth percentage
Procedure: as §1, §2, §3, §4, §5

NCI-H23 = conditions: Homo sapiens, NCI-H23, Non-Small Cell Lung Cancer, 10 µM one dose, 48 h, read-out: growth percentage
Procedure: as §1, §2, §3, §4, §5

RXF 393 = conditions: Homo sapiens, RXF 393, Renal Cancer, 10 µM one dose, 48 h, read-out: growth percentage
Procedure: as §1, §2, §3, §4, §5

K-562 = conditions: Homo sapiens, K562, K-562, Leukemia, 10 µM one dose, 48 h, read-out: growth percentage
Procedure: as §1, §2, §3, §4, §5

MALME-3M = conditions: Homo sapiens, Melanoma, 10 µM one dose, 48 h, read-out: growth percentage
Procedure: as §1, §2, §3, §4, §5

T-47D = conditions: Homo sapiens, T47D, Breast Cancer, 10 µM one dose, 48 h, read-out: growth percentage
Procedure: as §1, §2, §3, §4, §5

Row | Structure (SMILES) | activity at 10 µM (MCF7) | activity at 10 µM (A498) | activity at 10 µM (HCT-116) | activity at 10 µM (786-0) | activity at 10 µM (NCI-H226) | activity at 10 µM (TK-10) | activity at 10 µM (IGROV1) | activity at 10 µM (HS 578T) | activity at 10 µM (OVCAR-5) | activity at 10 µM (MDA-MB-231/ATCC) | activity at 10 µM (A549/ATCC) | activity at 10 µM (UO-31) | activity at 10 µM (NCI-H460) | activity at 10 µM (OVCAR-8) | activity at 10 µM (HT29) | activity at 10 µM (SF-539) | activity at 10 µM (NCI-H23) | activity at 10 µM (RXF 393) | activity at 10 µM (K-562) | activity at 10 µM (MALME-3M) | other results
1 | [O-][n+]1onc(-c2ccccc2)c1CNc1ccc(Nc2nc(C(F)(F)F)nc3c2cnn3-c2ccc(Br)cc2)cc1 [12b, 3-(((4-((1-(4-bromophenyl)-6-(trifluoromethyl)-1H-pyrazolo[3,4-d]pyrimidin-4-yl)amino)phenyl)amino)methyl)-4-phenyl-1,2,5-oxadiazole 2-oxide] | 38.8% | 97.4% | 46.7% | 67.2% | 77% | 86.8% | 60.1% | 77.6% | 77.2% | 69.7% | 64.4% | 43.4% | 35.6% | 72.8% | 43.9% | 68.3% | 72.4% | 51.2% | 22.8% | 93.5% | activity at 10 µM (SR): 43.5%; activity at 10 µM (T-47D): 68.8%
2 | O=c1[nH]c(CCl)nc2c1cnn2-c1ccccc1 [13a] | 79.5% | 77.9% | 94.9% | 122% | 110% | 154% | 96.2% | 111% | 111% | 101% | 98.5% | -20.9% | 101% | 114% | 115% | 97.1% | 101% | 94.1% | 87.5% | -38.5% | activity at 10 µM (SR): 87.1%; activity at 10 µM (T-47D): 95.2%
3 | Cc1nn(-c2ccc(Br)cc2)c2nc(C(F)(F)F)nc(Nc3ccc(NCc4c(-c5ccccc5)no[n+]4[O-])cc3)c12 [12c, 3-(((4-((1-(4-bromophenyl)-3-methyl-6-(trifluoromethyl)-1H-pyrazolo[3,4-d]pyrimidin-4-yl)amino)phenyl)amino)methyl)-4-phenyl-1,2,5-oxadiazole 2-oxide] | 68.2% | 117% | 31.9% | 88.1% | 75% | 109% | 59.6% | 83.2% | 89.5% | 65.9% | 82.4% | 50.3% | 46.6% | 75.8% | 70.4% | 59.4% | 91.6% | 89.2% | 51.4% | 77.7% | activity at 10 µM (SR): 55.5%; activity at 10 µM (T-47D): 85.6%
4 | [O-][n+]1onc(-c2ccccc2)c1COc1ccc(Nc2ncnc3c2cnn3-c2ccccc2)cc1 [6a, 4-phenyl-3-((4-((1-phenyl-1H-pyrazolo[3,4-d]pyrimidin-4-yl)amino)phenoxy)methyl)-1,2,5-oxadiazole 2-oxide] | 96.1% | 103% | 93% | 115% | 111% | 103% | 95% | 98.7% | 110% | 97.5% | 96% | 94.2% | 73.6% | 105% | 96% | 95.7% | 105% | 98.4% | 88% | 90% | activity at 10 µM (SR): 85.2%; activity at 10 µM (T-47D): 96%
5 | [O-][n+]1onc(-c2ccccc2)c1COc1ccc(Nc2ncnc3c2cnn3-c2ccc(Br)cc2)cc1 [6e, 3-((4-((1-(4-bromophenyl)-1H-pyrazolo[3,4-d]pyrimidin-4-yl)amino)phenoxy)methyl)-4-phenyl-1,2,5-oxadiazole 2-oxide] | 87.9% | 94% | 92.7% | 96.1% | 104% | 107% | 106% | 110% | 98.8% | 108% | 93.5% | 84.7% | 111% | 105% | 94.5% | 98.4% | 101% | 119% | 98.5% | 95.3% | activity at 10 µM (SR): 98%; activity at 10 µM (T-47D): 99.9%
6 | Cc1nn(-c2ccc(Br)cc2)c2nc(CCl)[nH]c(=O)c12 [13c] | 82.3% | -88.8% | 98.3% | 106% | 102% | 111% | 95.1% | 108% | 116% | 94.1% | 96.9% | -90.1% | 109% | 102% | 104% | 77% | 103% | 119% | 75.6% | -9.8% | activity at 10 µM (T-47D): 91.5%
